The subject of data set [1] is encephalitogenic BP10 line. In words: Adoptive EAE: BP10 T-cell line stimulated in vitro with test substance, then injected into naive rats. Format: in vivo, rat. As to the method: Antigen-specific T-cell lines were established from lymph node cells that had been stimulated with myelin basic protein (MBP; 10 μg/ml) for 3 days in stimulation medium as described below. Following stimulation, the T-cell blasts were isolated on LYMPHOPREP™ (Nycomed Pharma, Oslo, Norway) and seeded in propagation medium. Propagation medium was identical to stimulation medium without autologous serum, but supplemented with fetal calf serum 10% and T-cell growth factors from the supernatant of Con A stimulated spleen cells 10% (Mor et al. (1990) J Clin Invest, 85, 1594-1598). Animals were injected intra-peritoneally with 107 MBP-stimulated T cells, following 6-8 cycles of in vitro stimulations. It is known that MBP-reactive lines undergo a reduction in pathogenicity after 6 or more in vitro stimulations. In some experiments the BP10 line was stimulated with phorbol myristate acetate (PMA; 50 ng/ml) and ionomycin (500 ng/ml) for 3 days in stimulation medium, without antigen-presenting cells.
Active EAE was induced by subcutaneous injection of 25 μg guinea-pig MBP (GpMBP) in complete Freund's adjuvant (CFA). […] Adoptive EAE was transferred by intra-peritoneal injection of guinea-pig MBP-activated cells of the BP10 line as described in Mor et al. (1993) J Clin Invest, 92, 2199-2206. […] Clinical scoring was: +1, paralysis of tail; +1.5, paresis of posterior paws and ataxia; +2, paraplegia; +3, paralysis extending to thoracic spine; +4, a moribund state.
Treatment with cefuroxime in vivo could affect many different host agents involved in EAE or AA as well as influencing the rats' bacterial flora. To test whether the antibiotic might directly modify the behavior of effector T cells, an encephalitogenic T-cell line was stimulated in the presence or absence of cefuroxime in vitro. The weakly encephalitogenic BP10 line was used, and was stimulated for 3 days with MBP in the presence or absence of cefuroxime (50 μg/ml). The activated T cells were then washed to remove the antibiotic, the T cells were injected intra-peritoneally into naïve recipient rats (10^7 per rat), and EAE was scored. The BP10 line at later stimulations was used, when its pathogenic potential is reduced, allowing to detect both suppression and enhancement of disease. […] To rule out antigen presenting cells (APC) as the target of the beta-lactam antibiotic, the encephalitogenic BP10 line was stimulated without APC using PMA (50 ng/ml) and Ionomycin (500 ng/ml) in the presence or absence of cefuroxime.
Additional beta-lactam antibiotics were tested for their effect on the adoptive transfer of EAE.
A control group was injected with the untreated line.

In a further data set the test system is NOD mice. In words: Development of autoimmune diabetes in NOD mice. It counts as in vivo, mouse. The following applies: at 5.7 months; s.c. at weekly intervals, ampicillin 1300 μg or ceftriaxone 675 μg per mouse; blood sugar above 300 mg/dl on 2 measurements; control 60%. An excerpt: Inbred female Lewis rats and NOD (non-obese diabetic) mice were supplied by the animal breeding center of the Weizmann Institute of Science, Israel, under the supervision of Harlan Laboratories and were used at 2-3 months of age. Experiments were approved by the Institutional Animal Care and Use Committee. Human peripheral blood lymphocytes from healthy donors were obtained from the blood bank of Sheba Medical Center, Tel Hashomer, Israel.
NOD mice spontaneously develop diabetes mellitus similar to type I diabetes in humans. […] The mice were followed for the development of diabetes, marked by blood sugar above 300 mg/dl on 2 measurements.

In the next data set the target is T1, albumin (Rattus norvegicus, UniProt P02770).
T1 construct: Rat tissues were ground with a tissue grinder in lysis buffer; from tissue; host or cells: various tissue lysates and serum of Lewis rats, 2 hours after i.p. penicillin G
The data set can be described thus: Pen 9 western blot of rat tissue lysates after intraperitoneal penicillin G. The following applies: Lewis rats, 50 mg/rat intraperitoneally, 2 hours later. It counts as in vivo. On the technique in general: Immunoblotting shows a protein as a band on a membrane.

Data set [2] concerns the target T2, albumin of human CD3 T cells (Homo sapiens, UniProt P02768).
T2 construct: endogenous in cells; host or cells: primary human peripheral-blood T cells (CD3+, CD4+ or CD8+) from healthy donors
The data set can be described thus: Western blot with Pen 9 antibody of antibiotic-treated human T cells. It counts as cell-based. The following applies: T cells activated by mitogen in presence of antibiotic.
Procedure: Rat tissues were ground with a tissue grinder in lysis buffer. The homogenate was centrifuged 14000 g for 15 min in 4° C. and the supernatant was used for western blotting. The protein concentration was determined using the BIO-RAD DC™ protein assay (Bio-Rad laboratories, Hercules, Calif.). Following electrophoresis in SDS gel in a mini-gel apparatus (Bio-Rad), the gels were electro-transferred to nitrocellulose membranes (Schleicher and schuell, Dassel, Germany). The nitrocellulose membranes were washed with distilled water for 5 min, and then blocked for 60 min. using a blocking solution composed of 2% bovine serum albumin (Fraction V, Sigma, St. Louis Mo.), 2.5% milk powder (Bio-Rad), Tris (Sigma) pH 7.5 10 mM, NaCl 150 mM and 0.02% thimerosal (Sigma). After 3×10 min. washes in PBS/TWEEN® 20 (PBS/T; 0.02%, Sigma), primary antibodies (1/1000) were incubated with the membranes in PBS/TWEEN® for 60 min. Following another series of washes in PBS/T (3×10 min), the membranes were incubated with a secondary antibody (Peroxidase conjugated anti rabbit or anti mouse, IgG Jackson ImmunoResearch, West Grove, Calif.) at a 1/2500 dilution in 2% milk in PBS solution for 60 min. After another 3×10 min washes, the membranes were incubated with the ECL reagent (for 60 seconds) and exposed to X-ray film.

For data set [3] the following is noted: free penicillin; cited from earlier work.
For data set [4], the target named is T3, 67 kDa protein of human CD4 and CD8 T cells (identified as albumin) (Homo sapiens, UniProt P02768).
T3 construct: endogenous in cells; host or cells: primary human peripheral-blood T cells (CD3+, CD4+ or CD8+) from healthy donors
In words: Radioactive penicillin binding assay. The following applies: 10 and 20 μCi tritium-labeled, 3 days with PMA and Ionomycin; SDS-PAGE autoradiography. An excerpt:
Tritium labeled benzylpenicillin was obtained from Amersham (Buckinghamshire, UK; 250 μCi, 1 mCi/ml). Human CD4 or CD8 T cells were stimulated in 24 well plates, 5×10^6 cells per ml, with PMA and Ionomycin for 72 hr in the presence of 10 or 20 μCi of labeled penicillin. Following stimulation, the cells were collected, lysed and separated by SDS PAGE. The gels were fixed, treated with 1M sodium salicylate, and dried. The dried gels were exposed to x-ray film (BioMax MS film) for 14 days, with intensifying screen (BioMax TranScreen, Eastman Kodak Co., New Haven Conn., USA), and were developed.
To test whether beta-lactam antibiotics might affect T-cell behavior likewise by covalently binding a key T-cell protein, purified CD4 or CD8 human T cells were incubated with 10 and 20 μCi of tritium-labeled lactam benzylpenicillin (Amersham, Buckinghamshire, UK) for 3 days during stimulation with PMA and Ionomycin. The stimulated T cells were collected, washed, lysed and their proteins were subjected to SDS-PAGE separation. Dried gels were exposed in intensifying screens to Xray film for 2 weeks at −80° C. […] The intensity of the band was stronger at the 20 μCi concentration of penicillin.

T3 sequence (P02768 25-609): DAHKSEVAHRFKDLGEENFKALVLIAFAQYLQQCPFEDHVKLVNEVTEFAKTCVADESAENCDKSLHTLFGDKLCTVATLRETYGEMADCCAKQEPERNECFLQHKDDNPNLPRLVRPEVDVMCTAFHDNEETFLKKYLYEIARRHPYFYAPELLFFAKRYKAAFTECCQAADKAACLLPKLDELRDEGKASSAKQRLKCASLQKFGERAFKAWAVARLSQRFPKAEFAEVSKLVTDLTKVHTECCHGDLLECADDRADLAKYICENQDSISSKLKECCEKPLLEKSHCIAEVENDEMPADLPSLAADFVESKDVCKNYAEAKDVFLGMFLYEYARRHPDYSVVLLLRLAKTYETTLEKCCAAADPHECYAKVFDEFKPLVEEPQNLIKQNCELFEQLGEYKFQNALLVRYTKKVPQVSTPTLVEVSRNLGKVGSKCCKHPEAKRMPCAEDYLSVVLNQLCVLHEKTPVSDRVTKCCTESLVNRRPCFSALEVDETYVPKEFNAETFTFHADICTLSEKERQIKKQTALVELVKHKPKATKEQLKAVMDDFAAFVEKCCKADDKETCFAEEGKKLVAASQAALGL
T2 sequence (P02768 25-609): as above

With `CO/N=C(\C(=O)N[C@@H]1C(=O)N2C(C(=O)O)=C(CSc3nc(=O)c(=O)[nH]n3C)CS[C@H]12)c1csc(N)n1` [ceftriaxone], the “severity of adoptive EAE in recipient rats” value in data set [1] (BP10 line stimulated 3 days with MBP in presence of 50 μg/ml antibiotic, 10^7 cells per rat) was “enhanced EAE severity”. In the data set with NOD mice, this molecule registered an incidence of diabetes of 60%.

As to `CC1(C)S[C@@H]2[C@H](NC(=O)Cc3ccccc3)C(=O)N2[C@H]1C(=O)O` [penicillin, benzylpenicillin], the “67 kD band representing penicilloylated albumin in tissue lysates” value on albumin is “appears in all tissues examined and is most abundant in serum”. For the same molecule, the “Pen 9 reactivity with lysates of antibiotic-treated T cells” value in data set [2] is recorded as “reacted specifically to a major protein of the penicillin-treated T cells”. Further, in data set [3], the half-life is 42 min. Also, the “radioactive penicillin-protein band in T-cell lysates” value in data set [4] was “single major penicillin-protein radioactive band was detected at 67 kD”.

B1: Penicillin-modified rat albumin: rat albumin modified with penicillin (conjugate, UniProt P02770 25-608, looked up)
Albumin: EAHKSEIAHRFKDLGEQHFKGLVLIAFSQYLQKCPYEEHIKLVQEVTDFAKTCVADENAENCDKSIHTLFGDKLCAIPKLRDNYGELADCCAKQEPERNECFLQHKDDNPNLPPFQRPEAEAMCTSFQENPTSFLGHYLHEVARRHPYFYAPELLYYAEKYNEVLTQCCTESDKAACLTPKLDAVKEKALVAAVRQRMKCSSMQRFGERAFKAWAVARMSQRFPNAEFAEITKLATDVTKINKECCHGDLLECADDRAELAKYMCENQATISSKLQACCDKPVLQKSQCLAEIEHDNIPADLPSIAADFVEDKEVCKNYAEAKDVFLGTFLYEYSRRHPDYSVSLLLRLAKKYEATLEKCCAEGDPPACYGTVLAEFQPLVEEPKNLVKTNCELYEKLGEYGFQNAVLVRYTQKAPQVSTPTLVEAARNLGRVGTKCCTLPEAQRLPCVEDYLSAILNRLCVLHEKTPVSEKVTKCCSGSLVERRPCFSALTVDETYVPKEFKAETFTFHSDICTLPDKEKQIKKQTALAELVKHKPKATEDQLKTVMGDFAQFVDKCCKAADKDNCFATEGPNLVARSKEALA
modifications: penicillin-modified
As to B1, in data set [1] (BP10 line stimulated 3 days with 5 mg/ml in stimulation medium, control untreated line), the “severity of adoptive EAE mediated by the BP10 line” value is on record as “could also enhance the encephalogenicity of the BP10 line”.

For orientation: half-life means the time needed for the level to fall by half in the phase considered.

These data come from patent US9474744B2, “Beta-lactam compounds for treating diabetes” (STEM CELL MEDICINE LTD., priority 2011, dated 2016).
